{"source": "patent US20240050429A1", "about": "“PAZOPANIB PHARMACEUTICAL COMPOSITION, INJECTION AND PREPARATION METHOD AND USE THEREOF” (Qx Therapeutics, Inc., priority 2022, published 2024)", "tested_on": "hydrochloric acid-induced acute lung injury in mice", "assay": "Hydrochloric acid-induced acute lung injury, lung permeability, tail intravenous injection of Example 2", "format": "in vivo", "set-up": "dose or concentration left out as unconfirmed", "description": "1. In this example, […], respectively, which corresponded to the freshly prepared pharmaceutical compositions in Example 2 (being freshly formulated referred to within 1 day after the formulation was completed), and the therapeutic effect of these doses on hydrochloric acid-induced acute lung injury in mice were determined, wherein the body weight of each mouse was 20 g.\n8 to 10 weeks old C57/BL male and female mice were infused with 0.05 M HCl at 2.5 μl/bwg through the trachea. 4 hours later, 100 μl of FITC-labeled albumin (10 mg/ml) was injected through the posterior segment of eyeball. Finally, the mice were euthanized and lung tissue samples were collected 6 hours after the induction of injury to measure changes in pulmonary permeability and lung histopathology. […] Meanwhile, plasma was collected and bronchoalveolar lavage was performed after mice were euthanized.", "note": "Counter-ions that a name gives are not always drawn.", "data": [{"smiles": "Cc1ccc(Nc2nccc(N(C)c3ccc4c(C)n(C)nc4c3)n2)cc1S(N)(=O)=O", "note": "[Comparative Example 1, pazopanib hydrochloride]", "values": [{"measurement": "Percentage (%) of reduced lung permeability", "result": "45 to 70", "unit": "%"}]}]}
